In patent US20260315464A1, “COMPOSITIONS, METHODS, AND SYSTEMS FOR MODULATING SPLICING OF MSH3” (REVIR THERAPEUTICS, INC., priority 2023, published 2026) one finds mrna remaining and EC50 data, which are given here for 23 compounds.

In the assay the test system is MSH3. Briefly: QPCR assay for levels of MSH3 upon compound treatment in HEK293T or AD293 cells (fold-change of MSH3 transcript, EC50 of MSH3 downregulation; total MSH3 exons 13/14, exons 20/21; Table 8). Type of assay: cell-based. To be noted: for mrna remaining at 1 µM / mrna remaining at 10 µM: Homo sapiens, fold-change of the MSH3 transcript, normalized to GAPDH; for mrna remaining at 1 µM: 1 μM compound; for mrna remaining at 10 µM: 10 μM compound; for EC50: EC50 of MSH3 downregulation, XtalPi. Put shortly: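 MSH3 mRNA was quantified by TaqMan qPCR covering exons 13/14, exons 20/21, exon 13/PE14A and exon 20/PE21A, with GAPDH as reference. Cells used were HEK293T or AD293, treated with compound at 1 μM and […].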

`Cc1nn(C)cc1-c1cnc2c(c1)C(=O)N(c1cnc(N(C)[C@H]3C[C@]4(C)CC[C@](C)(C3)N4)nn1)C2` [Compound 175, 3-(1,3-dimethyl-1H-pyrazol-4-yl)-6-(3-(((1R,3s,5S)-1,5-dimethyl-8-azabicyclo[3.2.1]octan-3-yl)(methyl)amino)-1,2,4-triazin-6-yl)-6,7-dihydro-5H-pyrrolo[3,4-b]pyridin-5-one]: the mrna remaining at 1 µM stood at 93% and the mrna remaining at 10 µM came out at 70%.
In the same order, the values of `Cc1nn(C)nc1-c1cc(F)c2c(c1)C(=O)N(c1ccc(N3CCNC(C)(C)C3)nn1)C2` [Compound 643, 6-(2,5-dimethyl-2H-1,2,3-triazol-4-yl)-2-(6-(3,3-dimethylpiperazin-1-yl)pyridazin-3-yl)-4-fluoroisoindolin-1-one] are 109% and 72%.
The matching figures for `Cc1nn(C)nc1-c1cc(F)c2c(c1)C(=O)N(c1ccc(N3CCC4CCC(C3)N4)nn1)C2` (centres unmarked) [Compound 651, 2-(6-(3,9-diazabicyclo[4.2.1]nonan-3-yl)pyridazin-3-yl)-6-(2,5-dimethyl-2H-1,2,3-triazol-4-yl)-4-fluoroisoindolin-1-one]: 96% and 60%.
In the same order, the values of `CC(C)[C@@H]1CN(c2ccc(N3Cc4c(F)cc(-c5nn(C)nc5Cl)cc4C3=O)nn2)CCN1` [Compound 638, (R)-6-(5-chloro-2-methyl-2H-1,2,3-triazol-4-yl)-4-fluoro-2-(6-(3-isopropylpiperazin-1-yl)pyridazin-3-yl)isoindolin-1-one] are 112% and 22%.
As to `Cn1nc(Cl)c(-c2cc(F)c3c(c2)C(=O)N(c2ccc(N4CC5(CNC5)C4)nn2)C3)n1` [Compound 670, 2-(6-(2,6-diazaspiro[3.3]heptan-2-yl)pyridazin-3-yl)-6-(5-chloro-2-methyl-2H-1,2,3-triazol-4-yl)-4-fluoroisoindolin-1-one], the mrna remaining at 1 µM came out at 92% and the mrna remaining at 10 µM came out at 44%.
Consider `Cc1nn(C)cc1-c1cc(F)c2c(c1)C(=O)N(c1ccc(N(C)[C@H]3C[C@]4(C)CC[C@](C)(C3)N4)nn1)C2` [Compound 274, 6-(1,3-dimethyl-1H-pyrazol-4-yl)-2-(6-(((1R,3s,5S)-1,5-dimethyl-8-azabicyclo[3.2.1]octan-3-yl)(methyl)amino)pyridazin-3-yl)-4-fluoroisoindolin-1-one], for which the midpoint of the response, the EC50, lay at 454 nM and the mrna remaining at 1 µM is 17%.
As to `CN(c1ccc(N2Cc3ncc(-c4nnn(C)n4)cc3C2=O)nn1)[C@H]1C[C@]2(C)CC[C@](C)(C1)N2` [Compound 612, 6-(6-(((1R,3s,5S)-1,5-dimethyl-8-azabicyclo[3.2.1]octan-3-yl)(methyl)amino)pyridazin-3-yl)-3-(2-methyl-2H-tetrazol-5-yl)-6,7-dihydro-5H-pyrrolo[3,4-b]pyridin-5-one], the mrna remaining at 1 µM came out at 109% and the mrna remaining at 10 µM is 15%.
As for `CN(C)C1CCN(c2ccc(N3Cc4c(F)cc(-c5nn(C)nc5Cl)cc4C3=O)nn2)CC1` [Compound 667, 6-(5-chloro-2-methyl-2H-1,2,3-triazol-4-yl)-2-(6-(4-(dimethylamino)piperidin-1-yl)pyridazin-3-yl)-4-fluoroisoindolin-1-one], the mrna remaining at 1 µM was found to be 92% and the mrna remaining at 10 µM came to 71%.
The matching figures for `Cc1nn(C)cc1-c1cc2c(nn1)CN(c1ccc(O[C@H]3C[C@]4(C)CC[C@](C)(C3)N4)nn1)C2=O` [Compound 595, 3-(1,3-dimethyl-1H-pyrazol-4-yl)-6-(6-(((1R,3s,5S)-1,5-dimethyl-8-azabicyclo[3.2.1]octan-3-yl)oxy)pyridazin-3-yl)-6,7-dihydro-5H-pyrrolo[3,4-c]pyridazin-5-one]: 91% and 18%.
`Cn1nc(Cl)c(-c2cc(F)c3c(c2)C(=O)N(c2ccc(N4CCC5CCC(C4)N5)nn2)C3)n1` (centres unmarked) [Compound 659, 2-(6-(3,9-diazabicyclo[4.2.1]nonan-3-yl)pyridazin-3-yl)-6-(5-chloro-2-methyl-2H-1,2,3-triazol-4-yl)-4-fluoroisoindolin-1-one]: the mrna remaining at 1 µM amounted to 142% and the mrna remaining at 10 µM was determined as 57%.
In the same order, the values of `Cc1nc(C)c(-c2cc(F)c3c(c2)C(=O)N(c2ccc(O[C@H]4C[C@]5(C)CC[C@](C)(C4)N5)nn2)C3)s1` [Compound 286, 2-(6-(((1R,3s,5S)-1,5-dimethyl-8-azabicyclo[3.2.1]octan-3-yl)oxy)pyridazin-3-yl)-6-(2,4-dimethylthiazol-5-yl)-4-fluoroisoindolin-1-one] are 117% and 59%.
The matching figures for `Cn1ncc(-c2cnc3c(c2)C(=O)N(c2ccc(OC4CCC(C)(C)NC(C)(C)C4)nn2)C3)n1` (centres unmarked) [Compound 485, 3-(2-methyl-2H-1,2,3-triazol-4-yl)-6-(6-((2,2,7,7-tetramethylazepan-4-yl)oxy)pyridazin-3-yl)-6,7-dihydro-5H-pyrrolo[3,4-b]pyridin-5-one]: 88% and 40%.
Turning to `Cn1nc(Cl)c(-c2cnc3c(c2)C(=O)N(c2ccc(O[C@H]4C[C@]5(C)CC[C@](C)(C4)N5)nn2)C3)n1` [Compound 480, 3-(5-chloro-2-methyl-2H-1,2,3-triazol-4-yl)-6-(6-(((1R,3s,5S)-1,5-dimethyl-8-azabicyclo[3.2.1]octan-3-yl)oxy)pyridazin-3-yl)-6,7-dihydro-5H-pyrrolo[3,4-b]pyridin-5-one], the EC50 (as a rule, the concentration giving half of the maximal effect) amounted to 363 nM; the mrna remaining at 1 µM was found to be 15%; the mrna remaining at 10 µM stood at 10%.
With `Cn1cc(-c2cc3c(cn2)CN(c2ccc(OC4CC(C)(C)NC(C)(C)C4)nn2)C3=O)c(F)n1` [Compound 91, 6-(3-fluoro-1-methyl-1H-pyrazol-4-yl)-2-(6-((2,2,6,6-tetramethylpiperidin-4-yl)oxy)pyridazin-3-yl)-2,3-dihydro-1H-pyrrolo[3,4-c]pyridin-1-one], the mrna remaining at 1 µM is 85% and the mrna remaining at 10 µM is 74%.
Turning to `Cn1nc(Cl)c(-c2cc(F)c3c(c2)C(=O)N(c2ccc(N4CCNC(C)(C)C4)nn2)C3)n1` [Compound 642, 6-(5-chloro-2-methyl-2H-1,2,3-triazol-4-yl)-2-(6-(3,3-dimethylpiperazin-1-yl)pyridazin-3-yl)-4-fluoroisoindolin-1-one], the mrna remaining at 1 µM amounted to 91% and the mrna remaining at 10 µM was determined as 21%.
With `Cc1nn(C)nc1-c1cc(F)c2c(c1)C(=O)N(c1ccc(N3CCN[C@@H](C(C)(C)C)C3)nn1)C2` [Compound 298, (S)-2-(6-(3-(tert-butyl)piperazin-1-yl)pyridazin-3-yl)-6-(2,5-dimethyl-2H-1,2,3-triazol-4-yl)-4-fluoroisoindolin-1-one], the mrna remaining at 1 µM came out at 89% and the mrna remaining at 10 µM worked out at 29%.
The matching figures for `Cn1nc(Cl)c(-c2cnc3c(c2)C(=O)N(c2ccc(OC4CC(C)(C)NC5(CCC5)C4)nn2)C3)n1` (centres unmarked) [Compound 619, 3-(5-chloro-2-methyl-2H-1,2,3-triazol-4-yl)-6-(6-((6,6-dimethyl-5-azaspiro[3.5]nonan-8-yl)oxy)pyridazin-3-yl)-6,7-dihydro-5H-pyrrolo[3,4-b]pyridin-5-one]: 80% and 10%.
Consider `C[C@@H]1CN(c2ccc(N3Cc4ncc(-c5nn(C)nc5Cl)cc4C3=O)nn2)[C@@H](C)CN1` [Compound 614, 3-(5-chloro-2-methyl-2H-1,2,3-triazol-4-yl)-6-(6-((2S,5R)-2,5-dimethylpiperazin-1-yl)pyridazin-3-yl)-6,7-dihydro-5H-pyrrolo[3,4-b]pyridin-5-one], for which the mrna remaining at 1 µM came to 107% and the mrna remaining at 10 µM amounted to 79%.
The matching figures for `CN(c1ccc(N2Cc3c(F)cc(-c4cnn(CC(C)(C)O)n4)cc3C2=O)nn1)C1CC(C)(C)NC(C)(C)C1` [Compound 633, 4-fluoro-6-(2-(2-hydroxy-2-methylpropyl)-2H-1,2,3-triazol-4-yl)-2-(6-(methyl(2,2,6,6-tetramethylpiperidin-4-yl)amino)pyridazin-3-yl)isoindolin-1-one]: 109% and 89%.
The matching figures for `Cn1nc(Cl)c(-c2cnc3c(n2)C(=O)N(c2ccc(OC4CC(C)(C)NC5(CCC5)C4)nn2)C3)n1` (centres unmarked) [Compound 628, 3-(5-chloro-2-methyl-2H-1,2,3-triazol-4-yl)-6-(6-((6,6-dimethyl-5-azaspiro[3.5]nonan-8-yl)oxy)pyridazin-3-yl)-6,7-dihydro-5H-pyrrolo[3,4-b]pyrazin-5-one]: 101% and 20%.
The matching figures for `CN(c1ccc(N2Cc3ncc(-c4nn(C)nc4Cl)nc3C2=O)nn1)[C@H]1C[C@]2(C)CC[C@](C)(C1)N2` [Compound 627, 3-(5-chloro-2-methyl-2H-1,2,3-triazol-4-yl)-6-(6-(((1R,3s,5S)-1,5-dimethyl-8-azabicyclo[3.2.1]octan-3-yl)(methyl)amino)pyridazin-3-yl)-6,7-dihydro-5H-pyrrolo[3,4-b]pyrazin-5-one]: 37% and 11%.
Regarding `Cc1nn(C)nc1-c1cc(F)c2c(c1)C(=O)N(c1ccc(N3C[C@@H](C)N[C@@H](C)C3)nn1)C2` [Compound 641, 6-(2,5-dimethyl-2H-1,2,3-triazol-4-yl)-2-(6-((3S,5R)-3,5-dimethylpiperazin-1-yl)pyridazin-3-yl)-4-fluoroisoindolin-1-one], the mrna remaining at 1 µM worked out at 96% and the mrna remaining at 10 µM was 34%.
In the same order, the values of `CN(c1ncc(N2Cc3cnc(-c4cnn(C)n4)cc3C2=O)nn1)[C@H]1C[C@]2(C)CC[C@](C)(C1)N2` [Compound 73, 2-(3-(((1R,3s,5S)-1,5-dimethyl-8-azabicyclo[3.2.1]octan-3-yl)(methyl)amino)-1,2,4-triazin-6-yl)-6-(2-methyl-2H-1,2,3-triazol-4-yl)-2,3-dihydro-1H-pyrrolo[3,4-c]pyridin-1-one] are 85% and 70%.
